# Experimental data: patent EP4635500A1, “THERAPEUTIC AGENT FOR BACTERIAL INFECTION” (Sumitomo Pharma Co., Ltd., priority 2022, dated 2024)
# Where two headings read alike, the source gives them in different places.
# Assays:
# [1] = tested on: Enterobacterales; experiment: MIC, broth microdilution, CDC/FDA Antibiotic Resistance Isolate Bank (Example 7, Tables 8, 11, 12); type: cell-based; details: for MIC: read-out: MIC
# [2] = tested on: A. baumannii; experiment: MIC, broth microdilution, CDC/FDA Antibiotic Resistance Isolate Bank (Example 7, Tables 9, 13, 14); type: cell-based, Acinetobacter baumannii; details: for MIC: read-out: MIC
# [3] = MIC distribution, metallo-β-lactamase-producing A. baumannii, inhibitor µg/mL in parentheses
structure (smiles),measurement,setting,value
"C[C@H]1COc2c(N3CCN(C)CC3)c(F)cc3c(=O)c(C(=O)O)cn1c23 [Levofloxacin, levofloxacin]",MIC,"[1]; Klebsiella pneumoniae, KUB No. 5638, AR Bank # 141",8 µg/mL
same,MIC,"[1]; Klebsiella pneumoniae, KUB No. 5639, AR Bank # 142",8 µg/mL
same,MIC,"[1]; Klebsiella pneumoniae, KUB No. 5640, AR Bank # 143",64 µg/mL
same,MIC,"[1]; Klebsiella pneumoniae, KUB No. 5642, AR Bank # 145",32 µg/mL
same,MIC,"[1]; Klebsiella pneumoniae, KUB No. 5643, AR Bank # 146",64 µg/mL
same,MIC,"[1]; Klebsiella pneumoniae, KUB No. 5645, AR Bank # 148",64 µg/mL
same,MIC,"[1]; Klebsiella pneumoniae, KUB No. 5649, AR Bank # 152",32 µg/mL
same,MIC,"[1]; Klebsiella pneumoniae, KUB No. 5650, AR Bank # 153",> 64 µg/mL
same,MIC,"[1]; Klebsiella pneumoniae, KUB No. 5655, AR Bank # 158",16 µg/mL
same,MIC,"[1]; Klebsiella pneumoniae, KUB No. 5657, AR Bank # 160",0.12 µg/mL
same,MIC,"[1]; Klebsiella pneumoniae, KUB No. 5757, AR Bank # 361",64 µg/mL
same,MIC,"[1]; Klebsiella pneumoniae, KUB No. 5759, AR Bank # 363",64 µg/mL
same,MIC,"[1]; Klebsiella pneumoniae, KUB No. 5760, AR Bank # 364",64 µg/mL
same,MIC,"[1]; Klebsiella pneumoniae, KUB No. 5772, AR Bank # 376",16 µg/mL
same,MIC,"[1]; Klebsiella pneumoniae, Klebsiella pneumoniae KUB No. 5784, AR Bank #438",64 µg/mL
same,MIC,"[1]; Klebsiella pneumoniae, Klebsiella pneumoniae KUB No. 5797, AR Bank #453",64 µg/mL
same,MIC,"[1]; Klebsiella pneumoniae, Klebsiella pneumoniae KUB No. 5809, AR Bank #504",0.5 µg/mL
same,MIC,"[1]; Klebsiella pneumoniae, Klebsiella pneumoniae KUB No. 5810, AR Bank #505",1 µg/mL
same,MIC,"[1]; Klebsiella pneumoniae, Klebsiella pneumoniae KUB No. 5811, AR Bank #506",4 µg/mL
same,MIC,"[1]; Klebsiella pneumoniae, Klebsiella pneumoniae KUB No. 5812, AR Bank #507",> 64 µg/mL
same,MIC,"[1]; Klebsiella pneumoniae, Klebsiella pneumoniae KUB No. 5827, AR Bank #522",32 µg/mL
same,MIC,"[1]; Klebsiella pneumoniae, Klebsiella pneumoniae KUB No. 5828, AR Bank #523",4 µg/mL
same,MIC,"[1]; Klebsiella pneumoniae, Klebsiella pneumoniae KUB No. 5829, AR Bank #524",32 µg/mL
same,MIC,"[1]; Klebsiella pneumoniae, Klebsiella pneumoniae KUB No. 5830, AR Bank #525",64 µg/mL
same,MIC,"[1]; Kluyvera ascorbata, KUB No. 5641, AR Bank # 144",2 µg/mL
same,MIC,"[1]; Morganella morganii, KUB No. 5554, AR Bank# 57",8 µg/mL
same,MIC,"[1]; Morganella morganii, KUB No. 5630, AR Bank # 133",64 µg/mL
same,MIC,"[1]; Morganella morganii, Morganella morganii KUB No. 5824, AR Bank #519",0.12 µg/mL
same,MIC,"[1]; Proteus mirabilis, KUB No. 5556, AR Bank# 59",8 µg/mL
same,MIC,"[1]; Proteus mirabilis, KUB No. 5652, AR Bank # 155",> 64 µg/mL
same,MIC,"[1]; Proteus mirabilis, KUB No. 5653, AR Bank # 156",2 µg/mL
same,MIC,"[1]; Proteus mirabilis, KUB No. 5656, AR Bank # 159",2 µg/mL
same,MIC,"[1]; Proteus mirabilis, KUB No. 5773, AR Bank # 377",16 µg/mL
same,MIC,"[1]; Proteus mirabilis, KUB No. 5775, AR Bank # 379",4 µg/mL
same,MIC,"[1]; Raoultella ornithinolvtica, KUB No. 5631, AR Bank # 134",0.5 µg/mL
same,MIC,"[1]; Salmonella enterica, Salmonella Senftenberg, KUB No. 5624, AR Bank # 127",32 µg/mL
same,MIC,"[1]; Serratia marcescens, KUB No. 5596, AR Bank # 99",0.25 µg/mL
same,MIC,"[1]; Serratia marcescens, KUB No. 5618, AR Bank # 121",0.12 µg/mL
same,MIC,"[1]; Serratia marcescens, KUB No. 5619, AR Bank # 122",0.5 µg/mL
same,MIC,"[1]; Serratia marcescens, KUB No. 5620, AR Bank # 123",0.25 µg/mL
same,MIC,"[1]; Serratia marcescens, KUB No. 5621, AR Bank # 124",0.5 µg/mL
same,MIC,"[1]; Serratia marcescens, KUB No. 5627, AR Bank # 130",0.12 µg/mL
same,MIC,"[1]; Serratia marcescens, KUB No. 5628, AR Bank # 131",0.5 µg/mL
same,MIC,"[1]; Serratia marcescens, Serratia marcescens KUB No. 5825, AR Bank #520",0.5 µg/mL
same,MIC,"[1]; Serratia marcescens, Serratia marcescens KUB No. 5826, AR Bank #521",16 µg/mL
same,MIC50,"[1]; carbapenemase-producing Enterobacterales, Metallo-β-lactamase (N = 47), read-out: MIC50",32 µg/mL
same,MIC90,"[1]; carbapenemase-producing Enterobacterales, Metallo-β-lactamase (N = 47), read-out: MIC90",> 64 µg/mL
same,MIC,"[2]; Acinetobacter baumannii, KUB No. 5719, AR Bank #286",8 µg/mL
same,MIC,"[2]; Acinetobacter baumannii, KUB No. 5720, AR Bank #287",16 µg/mL
same,MIC,"[2]; Acinetobacter baumannii, KUB No. 5721, AR Bank #288",> 64 µg/mL
same,MIC,"[2]; Acinetobacter baumannii, KUB No. 5722, AR Bank #259",16 µg/mL
same,MIC,"[2]; Acinetobacter baumannii, KUB No. 5723, AR Bank #290",8 µg/mL
same,MIC,"[2]; Acinetobacter baumannii, KUB No. 5724, AR Bank #291",8 µg/mL
same,MIC,"[2]; Acinetobacter baumannii, KUB No. 5725, AR Bank #292",4 µg/mL
same,MIC,"[2]; Acinetobacter baumannii, KUB No. 5726, AR Bank #293",4 µg/mL
same,MIC,"[2]; Acinetobacter baumannii, KUB No. 5727, AR Bank #294",32 µg/mL
same,MIC,"[2]; Acinetobacter baumannii, KUB No. 5728, AR Bank #295",16 µg/mL
same,MIC,"[2]; Acinetobacter baumannii, KUB No. 5729, AR Bank #296",32 µg/mL
same,MIC,"[2]; Acinetobacter baumannii, KUB No. 5730, AR Bank #297",32 µg/mL
same,MIC,"[2]; Acinetobacter baumannii, KUB No. 5731, AR Bank #298",8 µg/mL
same,MIC,"[2]; Acinetobacter baumannii, KUB No. 5732, AR Bank #299",64 µg/mL
same,MIC,"[2]; Acinetobacter baumannii, KUB No. 5733, AR Bank #300",64 µg/mL
same,MIC,"[2]; Acinetobacter baumannii, KUB No. 5734, AR Bank #301",16 µg/mL
same,MIC,"[2]; Acinetobacter baumannii, KUB No. 5735, AR Bank #302",> 64 µg/mL
same,MIC,"[2]; Acinetobacter baumannii, KUB No. 5736, AR Bank #303",16 µg/mL
same,MIC,"[2]; Acinetobacter baumannii, KUB No. 5737, AR Bank #304",16 µg/mL
same,MIC,"[2]; Acinetobacter baumannii, KUB No. 5738, AR Bank #305",16 µg/mL
same,MIC,"[2]; Acinetobacter baumannii, KUB No. 5739, AR Bank #306",32 µg/mL
same,MIC,"[2]; Acinetobacter baumannii, KUB No. 5740, AR Bank #307",16 µg/mL
same,MIC,"[2]; Acinetobacter baumannii, KUB No. 5741, AR Bank #308",16 µg/mL
same,MIC,"[2]; Acinetobacter baumannii, KUB No. 5742, AR Bank #309",64 µg/mL
same,MIC,"[2]; Acinetobacter baumannii, KUB No. 5743, AR Bank #310",32 µg/mL
same,MIC,"[2]; Acinetobacter baumannii, KUB No. 5744, AR Bank #311",4 µg/mL
same,MIC,"[2]; Acinetobacter baumannii, KUB No. 5745, AR Bank #312",4 µg/mL
same,MIC,"[2]; Acinetobacter baumannii, KUB No. 5746, AR Bank #313",8 µg/mL
same,MIC50,"[2]; Acinetobacter baumannii, 55 isolates of A. baumannii, read-out: MIC50",16 µg/mL
same,MIC80,"[2]; Acinetobacter baumannii, 55 isolates of A. baumannii, read-out: MIC80",32 µg/mL
same,MIC90,"[2]; Acinetobacter baumannii, 55 isolates of A. baumannii, read-out: MIC90",64 µg/mL
same,Number of isolates at MIC 8 µg/mL,[2]; [3],3
same,Number of isolates at MIC 16 µg/mL,[2]; [3],1
